Reference: patent publication US10561704B2, “Compositions and methods for treating neuropsychiatric disorders using an endothelin-B receptor agonist” (MIDWESTERN UNIVERSITY, priority 2013, dated 2020)
*1 amine or outer side, *2 acyl side, *3 side chain or, on linkers, in order; H or OH if unused. Where no end group is shown, it is not given here. Suc = O=C(CCC(=O)[*:2])[*:1]

Legend:
[1] = system: Aβ induced oxidative stress in the rat brain; assay: Oxidative stress markers (MDA, GSH, SOD) in brains of Aβ treated non-diabetic and diabetic rats; assay type: in vivo, Sprague-Dawley rats; conditions: for Brain malondialdehyde (MDA) level: IRL-1620 3 μg i.c.v. daily 14 days
Method: Male Sprague-Dawley rats (Harlan, Indianapolis, Ind.) weighing 280-310 g were allowed to acclimate for at least 4 days before use. Animals were housed in a room with controlled temperature (23±1° C.), humidity (50±10%), and light (6:00 A.M. to 6:00 P.M.). Food and water were available continuously. Animal care and use for experimental procedures were approved by the Institutional Animal Care and Use Committee (IACUC) of Midwestern University. All anesthetic and surgical procedures were in compliance with the guidelines established by the IACUC of Midwestern University.
Amyloid-β (1-40) (Tocris Bioscience, Ellisville, Mo., USA), IRL-1620 [N-Succinyl-[Glu9, Ala11,15] endothelin 1] (American Peptide Co, Inc., Sunnyvale, Calif., USA) and BQ788 (American Peptide Co, Inc., Sunnyvale, Calif., USA) were dissolved in sterile saline and all the solutions were freshly prepared before injections. Ketamine (Butler Animal Health Supply, Dublin, Ohio, USA) was administered at a dose of 100 mg/kg, intraperitoneally (i.p.), and xylazine (Lloyd Laboratories, Shenandoah, Iowa, USA) was administered at a dose of 10 mg/kg, i.p. Rats were anesthetized with ketamine (100 mg/kg) and xylazine (10 mg/kg) and a lateral cerebral ventricle was cannulated by placing the rat in a stereotaxic (David Kopf Instruments, Tujunga, Calif., USA) instrument and fixing the cannula (coordinates: 1.0 mm lateral, 1.5 mm caudal to bregma and 4.0 mm deep from the bone). Cannula (Plastics One, Roanoke, Va., USA) was anchored with dental acrylic to three screws placed in the skull. The animals were allowed to recover from surgery for at least seven days. After 7 days, rats were treated with vehicle, Aβ (1-40), ETB receptor agonist and/or antagonist in the lateral cerebral ventricles using the implanted cannula. Vehicle, Aβ or ETB receptor agonist and antagonist were injected in a volume of 5 μl over a period of 5 minutes. Aβ (1-40) was used because it is highly soluble compared to Aβ (1-42) and induces endothelial dysfunction of both cerebral and systemic blood vessels in addition to memory deficit (Nitta et al., 1994; Niwa et al., 2000; Smith et al., 2004; Weller et al., 1998). Agents were delivered using 10 μl Hamilton syringe and agent treatments were carried out individually using separate 10 μl syringe. IRL-1620 was administered 1 hour after Aβ injection whereas BQ788 was administered 15 minutes prior to IRL-1620 injection. At the end of the experiment, placement of cannula was confirmed by injecting methylene blue dye (5 μl) and observing the site and extent of staining. All experiments were performed on day 15 (Briyal et al., 2011). Water maze testing was performed from day 15 to day 19 after which animals were euthanized. Animals used for oxidative stress measurements were euthanized on day 15 without being subjected to any behavioral testing. Diabetes mellitus type 2 was induced in rats belonging to the diabetic group by administering freshly prepared streptozotocin at the dose of 45 mg/kg, i.p. Streptozotocin was dissolved in 0.01 M sodium citrate buffer of pH 4.3. On day 3, blood glucose was obtained from the rat-tail and tested for hyperglycemia using the SureStep Complete Blood Glucose monitor kit. Rats with blood glucose levels above 11.1 mM were considered diabetic. Diabetic and non-diabetic animals were randomly divided into five groups (6 rats per group) (i) Sham, (ii) Aβ+Vehicle, (iii) Aβ+IRL-1620, (iv) Aβ+BQ788 (v) Aβ+BQ788+IRL-1620. Aβ (1-40) was administered intracerebroventricularly (i.c.v.) (20 μg in 3 equally divided doses i.e. 6.67 μg were injected 3 times for a total of 20 μg dose) on day 1, 7, and 14. Specific ETB receptor agonist, IRL-1620 (3 μg) and specific ETB receptor antagonist, BQ788 (10 μg) were administered i.c.v. daily for 14 days starting from day 1 of Aβ injection. The doses of IRL-1620 and BQ788 were selected on the basis of previous studies conducted in our laboratory (Leonard et al., 2011). […]

[2] = system: middle cerebral artery occluded rats; conditions: acute study, 24 hours (Leonard et al., 2011); cited from earlier work
normal rats = conditions: intravenous; cited from earlier work
[3] = Aβ treated diabetic rats, day 15
[4] = Aβ treated non-diabetic rats, day 15

CCCC[C@@H](NC(=O)[C@@H](Cc1cn(C(=O)OC)c2ccccc12)NC(=O)[C@H](CC(C)(C)C)NC(=O)N1[C@H](C)CCC[C@@H]1C)C(=O)O [BQ788, reference compound]
Brain superoxide dismutase (SOD) level ([1]; Aβ treated diabetic rats, pretreated with BQ788 prior to IRL-1620): 16.52±0.45 U/mg protein | Brain superoxide dismutase (SOD) level ([1]; Aβ treated non-diabetic rats, pretreated with BQ788 prior to IRL-1620): 15.32±0.44 U/mg protein | IRL-1620 induced change in MDA levels ([1]; Aβ treated rats, BQ788 administered prior to IRL-1620): blocked | Brain reduced glutathione (GSH) level ([1]; Aβ treated rats, pretreatment with BQ788 before IRL-1620, diabetic status not stated): 81.2±5.49 μg/g wet tissue

Suc-Asp-Glu-Glu-Ala-Val-Tyr-Phe-Ala-His-Leu-Asp-Ile-Ile-Trp (Suc-DEEAVYFAHLDIIW) [IRL-1620]
Brain malondialdehyde (MDA) level [1, 3]: 315.09±5.25 nmol/g wet tissue | Brain reduced glutathione (GSH) level [1, 3]: 166.42±6.63 μg/g wet tissue | Brain superoxide dismutase (SOD) level [1, 3]: 21.4±1.65 U/mg protein | Brain malondialdehyde (MDA) level [1, 4]: 278.47±8.55 nmol/g wet tissue | Brain reduced glutathione (GSH) level [1, 4]: 192.74±6.26 μg/g wet tissue | Brain superoxide dismutase (SOD) level [1, 4]: 22.26±1.16 U/mg protein | Reduction of infarct volume [2]: 83.66% | Cerebral blood flow (CBF) (normal rats): significant elevation
